“Also recorded” adds a separate entry of the source. Where a SMILES comes first, the peptide text is derived from it. [ ]: non-standard residue; d: D form. Hyp = O=C(O)[C@@H]1C[C@@H](O)CN1
Test system: cytokine and chemokine release in human peripheral blood mononuclear cells (hPBMCs)
Test: Luminex multiplex, 30 cytokines and chemokines, LPS stimulated hPBMCs (Example 9, Study 2), whole panel
Assay type: cell-based
Details: for LPS-induced pro-inflammatory cytokines and chemokines, whole panel (in words): LPS 5 ug/mL 24 hrs, 100 uM to 1 nM
Description: Human PBMCs frozen purchased from ATCC in a cryo-preservative were thawed, washed with Hank's Balanced Salt Solution containing 10% fetal bovine serum, and seeded onto a 24-well plate at a density of 0.5×10^6 cells/well with culture RPMI media containing 10% fetal bovine serum in growth media in a 24 well plate for 24 hrs and maintained at 37° C. in an atmosphere of 95% air and 5% CO2. At the end of 24 hr culture, cells are pretreated with YY-101, YDE-011 and YDE-043 or reference compound, Xiidra® at various concentrations for 2 h before stimulation. An equal volume of 0.5% DMSO is used as a vehicle control. Then, the cells are treated with LPS. Supernatants from treated cells are harvested at 24 hr post-LPS treatment and placed in 96 well for Luminex cytokine & chemokine profiling using a Luminex 200 multiplex assay.
Human PBMCs frozen in a cryopreserve was thawed, washed with Hank's Balanced Salt Solution containing 10% Fetal bovine serum, and seeded onto a 24-well plate at a density of 0.5×10^6 cells/well with culture RPMI media containing 10% Fetal bovine serum in growth media in a 24 well plate for 24 hrs and maintained at 37° C. in an atmosphere of 95% air and 5% CO2.
Treatment Human PBMCs were pretreated with YY-101, YDE-011 and YDE-043 or reference compound; Xiidra® at various concentration (ranging from 1 nM to 100 uM) for 2 h before stimulation. An equal volume of 0.5% DMSO was used as a vehicle control. Then, the cells were treated with LPS at 5 ug/ml. The supernatants from treated cells were harvested at 24 h and placed in a 96 well for Luminex cytokine & chemokine profiling using a Luminex 200 multiplex assay (Luminex; R&D system, USA).
The main study arm with triplicate wells per group in a 24-well plate: • 1. Blank • 2. PBMC: 0.5% DMSO • 3. PBMC+LPS (5 ug/ml) • 4. PBMC+YY-101 100 uM • 5. PBMC+YY-101 10 uM • 6. PBMC+YY-101 1 uM • 7. PBMC+YY-101 0.1 uM • 8. PBMC+YY-101 0.01 uM • 9. PBMC+LPS (5 ug/ml)+Xiidra®100 uM • 10. PBMC+LPS (5 ug/ml)+Xiidra® 10 uM • 11. PBMC+LPS (5 ug/ml)+Xiidra® 1 uM • 12. PBMC+LPS (5 ug/ml)+Xiidra®0.1 uM • 13. PBMC+LPS (5 ug/ml)+Xiidra®0.01 uM • 14. PBMC+LPS (5 ug/ml)+Xiidra®0.001 uM • 15. PBMC+LPS (5 ug/ml)+YY-101 100 uM • 16. PBMC+LPS (5 ug/ml)+YY-101 10 uM • 17. PBMC+LPS (5 ug/ml)+YY-101 1 uM • 18. PBMC+LPS (5 ug/ml)+YY-101 0.1 uM • 19. PBMC+LPS (5 ug/ml)+YY-101 0.01 uM • 20. PBMC+LPS (5 ug/ml)+YY-101 0.001 uM • 21. PBMC+LPS (5 ug/ml)+YDE-011 100 uM • 22. PBMC+LPS (5 ug/ml)+YDE-011 10 uM • 23. PBMC+LPS (5 ug/ml)+YDE-011 1 uM • 24. PBMC+LPS (5 ug/ml)+YDE-011 0.1 uM • 25. PBMC+LPS (5 ug/ml)+YDE-011 0.01 uM • 26. PBMC+LPS (5 ug/ml)+YDE-011 0.001 uM • 27. PBMC+LPS (5 ug/ml)+YDE-043 100 uM • 28. PBMC+LPS (5 ug/ml)+YDE-043 10 uM • 29. PBMC+LPS (5 ug/ml)+YDE-043 1 uM • 30. PBMC+LPS (5 ug/ml)+YDE-043 0.1 uM • 31. PBMC+LPS (5 ug/ml)+YDE-043 0.01 uM • 32. PBMC+LPS (5 ug/ml)+YDE-043 0.001 uM
Multiplex assay was used to measure 30 cytokines and chemokines. The 1:2, 1:10 and 1:200 diluted cell supernatant and serial dilution of the standard were dispensed into a 96 well plate at 50 ul/well. Then, the pre-mixed cocktail of antibody-coated magnetic beads was dispensed at 50 ul/well and incubated at room temperature for 2 h in a horizontal orbital microplate shaker at 800±500 rpm. The beads were washed using a magnetic device to prevent loss. […] The data was calculated with a standard five-parameter logistic nonlinear regression analysis of the data (xPonent software 4.2, USA). […]

SMILES | LPS-induced pro-inflammatory cytokines and chemokines, whole panel (in words) | basal levels of cytokine/chemokine production (in words) (no LPS, up to 100 μM) | LPS-induced pro-inflammatory cytokines and chemokines, whole panel (in words) (listed as YDE043)
CC(C)C[C@H](NC(=O)CNC(=O)[C@H](CC(=O)O)NC(=O)[C@H](CCC(N)=O)NC(=O)CNC(=O)[C@@H]1C[C@@H](O)CN1)C(=O)N[C@@H](C)C(=O)NCC(=O)N1CCC[C@H]1C(=O)N[C@@H](CCCCN)C(=O)O [YY-101] (H-[Hyp]GQDGLAGPK-OH; N-terminus and C-terminus assumed) | effectively and potently reduced | didn't affect the basal levels of most of cytokine/chemokine production; also recorded: didn't affect the basal levels of cytokine production except TIMP-1 | –
CC(C)C[C@H](NC(=O)CNC(=O)[C@H](CC(C)C)NC(=O)[C@H](CCC(N)=O)NC(=O)CNC(=O)[C@@H]1C[C@@H](O)CN1)C(=O)N[C@@H](C)C(=O)NCC(=O)N1CCC[C@H]1C(=O)N[C@@H](CCCCN)C(=O)O [YDE-011] (H-[Hyp]GQLGLAGPK-OH) | effectively and potently reduced; also recorded: more potent and effective immunomodulators | – | –
CC(C)C[C@H](NC(=O)[C@H](CCC(N)=O)NC(=O)CNC(=O)[C@@H]1C[C@@H](O)CN1)C(=O)NCC(=O)O [YDE-043] (H-[Hyp]GQLG-OH; N-terminus and C-terminus assumed) | effectively and potently reduced | – | more potent and effective immunomodulators

Source: patent US20230146455A1, “TREATMENT OF INFLAMMATORY DISEASES WITH PEPTIDES AND PHARMACEUTICAL COMPOSITIONS” (Yuyu Pharma, Inc., priority 2020, published 2023)
